System: lysozyme
Assay: SPE protein-binding inhibition screening (Sep-Pak Accell Plus CM solid-phase extraction cartridge, absorbance of eluent at 280 nm)
Parameters: species or system hen
Conditions: test compound 1% in BBS; then 0.05% lysozyme; corrected for BBS control
Description: In another aspect of the present invention, selected polyquaternium polymers simultaneously satisfy the dual requirements of both (i) meeting ophthalmological safety standards for an in-the-eye contact-lens solution at concentrations of 1000 ppm and (ii) inhibiting protein binding to a contact lens. The safety requirements can be determined according to the so-called NRDR (neutral red dye release) assay for cytotoxicity described in the Examples. In particular, the polyquaternium polymer should have an NRDR assay rating of L or less at a level of 1000 ppm., preferably L or less at a level of 500 ppm (dry weight of polymer, correcting for water content of the available polymer material). […] The material in this extraction cartridge is a weak cation exchanger that contains a silica support coated with a polymer having carboxymethyl groups. This extraction cartridge is first treated with a 1.0% solution of the polyquaternium polymer in borate-buffered saline followed by exposing the solid phase extraction cartridge to 0.05% lysozyme. The amount of protein-binding inhibition is determined compared to a control solution. […] Preferably, the SPE protein-binding inhibition is at least 20%, more preferably at least 30%, most preferably at least 35%.
This Experiment illustrates the measurement of the protein-displacing effects of various polyquaternium polymers. Among the polyquaternium polymers tested, the polymers varied with respect to the comonomers making up the polymer, the respective proportion of comonomers, and/or the molecular weight of the polymer. The following screening procedure was used. […] The absorbance measurements were conducted by (1) taking an initial absorbance with BBS in a 1 cm cuvette, which reading should be 0.000, re-autozeroing if necessary with BBS, (2) rinsing and filling the cuvette with 0.05% lysozyme solution and reading the absorbance to obtain the "maximum inhibition value', and (3) reading the absorbances for the solutions in the test tubes used to collect the eluents from the test cartridges. […]

Substance	Average % SPE Binding Inhibition
benzalkonium bromide [BAB]	8%
benzalkonium chloride [BAK]	3%
lauryl methyl gluceth-10 hydroxy-propyl dimonium chloride [Gluquat® 125]	2%
